Measured values as given in ChEMBL document CHEMBL1201862, “PubChem BioAssay data set” (2004).
Activity calls are given as the source filed them.

How the values were obtained:
[1] = THP-1 cell cytotoxicity, dose response, cytotoxicity control for non-replicating M. tuberculosis project (AID 489025); assay type: functional
[2] = HepG2 cell cytotoxicity, dose response, cytotoxicity control for non-replicating M. tuberculosis project (AID 489018); assay type: functional; conditions: Mycobacterium tuberculosis
[3] = cells; assay type: functional
[4] = Vero E6 cell cytotoxicity, dose response, cytotoxicity control for non-replicating M. tuberculosis project, secondary assay (AID 492998); assay type: functional, VeroE6; conditions: Vero C1008
[5] = Jurkat T cell cytotoxicity, dose response, cytotoxicity control for P. falciparum gametocyte viability project, luminescence (AID 1117277); assay type: functional, cell-based;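 note: potency reflects loss of cellular ATP meaning fewer viable cells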
[6] = P. falciparum late gametocyte killing, dose response, luminescence (AID 1117278); assay type: functional, cell-based;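 note: gametocytes exposed to compound for 24 hours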
[7] = molecular target: Prothrombin (Homo sapiens, UniProt P00734); experiment: Thrombin 1536 HTS Dose Response Confirmation. [Related pubchem assays: 1046 (Thrombin 1536 HTS; hits were confirmed in this assay)]; assay type: functional
[8] = molecular target: T1, Sentrin-specific protease 8 (Homo sapiens, UniProt Q96LD8); assay type: functional
T1 sequence (Q96LD8 whole entry): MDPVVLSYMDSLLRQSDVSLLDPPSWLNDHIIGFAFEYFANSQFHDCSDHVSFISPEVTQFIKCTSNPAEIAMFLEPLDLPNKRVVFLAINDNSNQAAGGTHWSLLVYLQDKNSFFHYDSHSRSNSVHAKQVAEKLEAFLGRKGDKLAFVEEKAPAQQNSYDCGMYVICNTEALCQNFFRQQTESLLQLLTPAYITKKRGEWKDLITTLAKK

[9] = molecular target: T2, Coagulation factor XII (Homo sapiens, UniProt P00748); experiment: FXIIa inhibitor potency, concentration-response, biochemical (AID 716); assay type: functional
T2 sequence (P00748 whole entry): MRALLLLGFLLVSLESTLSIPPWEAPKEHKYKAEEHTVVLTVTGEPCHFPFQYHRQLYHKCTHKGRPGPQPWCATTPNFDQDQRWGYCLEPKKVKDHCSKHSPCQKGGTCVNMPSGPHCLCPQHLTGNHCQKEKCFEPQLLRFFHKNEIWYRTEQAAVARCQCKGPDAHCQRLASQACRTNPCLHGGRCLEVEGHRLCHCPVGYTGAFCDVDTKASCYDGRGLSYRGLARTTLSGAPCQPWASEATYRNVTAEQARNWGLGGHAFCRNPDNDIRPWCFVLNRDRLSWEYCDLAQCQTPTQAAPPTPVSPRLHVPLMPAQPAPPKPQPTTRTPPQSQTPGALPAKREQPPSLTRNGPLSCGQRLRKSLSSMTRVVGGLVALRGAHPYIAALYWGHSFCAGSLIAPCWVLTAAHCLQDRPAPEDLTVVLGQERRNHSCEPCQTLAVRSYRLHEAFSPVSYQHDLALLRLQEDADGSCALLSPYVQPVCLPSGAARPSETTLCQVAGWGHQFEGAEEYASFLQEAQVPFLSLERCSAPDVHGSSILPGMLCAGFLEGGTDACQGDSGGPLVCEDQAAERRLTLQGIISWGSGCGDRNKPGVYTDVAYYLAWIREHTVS

[10] = molecular target: Luciferin 4-monooxygenase (Photinus pyralis, UniProt P08659); experiment: Counter Screen for Luciferase-based Assay Positives. [Related pubchem assays: 620, 618, 411 ]
Chain of Luciferin 4-monooxygenase (P08659 whole entry): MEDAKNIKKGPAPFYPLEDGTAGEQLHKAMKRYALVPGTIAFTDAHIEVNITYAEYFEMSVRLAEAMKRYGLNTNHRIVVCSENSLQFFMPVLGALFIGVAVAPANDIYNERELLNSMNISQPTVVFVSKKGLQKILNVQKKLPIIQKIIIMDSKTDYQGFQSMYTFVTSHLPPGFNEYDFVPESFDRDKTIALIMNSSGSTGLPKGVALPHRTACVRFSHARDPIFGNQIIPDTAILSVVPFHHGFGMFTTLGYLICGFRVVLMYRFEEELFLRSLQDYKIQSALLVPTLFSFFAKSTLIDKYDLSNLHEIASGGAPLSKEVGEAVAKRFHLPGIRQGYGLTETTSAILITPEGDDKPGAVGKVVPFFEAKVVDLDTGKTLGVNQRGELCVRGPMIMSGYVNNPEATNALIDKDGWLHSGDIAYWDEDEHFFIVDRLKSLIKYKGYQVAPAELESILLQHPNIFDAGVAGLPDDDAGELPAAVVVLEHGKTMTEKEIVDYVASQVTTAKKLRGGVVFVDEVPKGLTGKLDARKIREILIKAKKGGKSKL

[11] = system: HT-1080; experiment: cytotoxicity in HT1080 fibrosarcoma cells, cell-based, fluorescence readout (AID 620); assay type: functional; conditions: Homo sapiens
[12] = cytotoxicity in HPDE-C7 cells, cell-based, fluorescence, HTS (AID 430); assay type: functional; conditions: Homo sapiens
[13] = cytotoxicity in KRAS-transformed pancreatic duct cells, primary screen, cell-based, fluorescence, HTS (AID 431); assay type: functional; conditions: Homo sapiens;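 note: cell line used: HPDE-C7K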

With `Oc1nc(-c2ccccn2)nc2ccccc12` the CC50 [1] was > 40 µM (active), the CC50 [2] was > 20 µM (active) and the IC50 [3] was 3.56 µM (active). The CC50 [4] was 19.6 µM (active).

With `O=C(COC(=O)c1cncc(Br)c1)NC1CCCCCC1` the IC50 [5] was > 83.3 µM (inactive) and the IC50 [6] was > 109 µM (inactive).

With `CN(C)c1ccc(NC(=O)c2ccc(Cn3cc([N+](=O)[O-])cn3)cc2)cc1` the IC50 [7] was > 50 µM (not active) and the IC50 [8] was 23.2 µM (active).

For `Cc1c(C(=O)N2CCC(C(N)=O)CC2)sc(N)c1C#N`, the IC50 [7] was > 50 µM (not active).

For `O=C(CCC1COc2ccccc2O1)NCc1ccco1` (configuration not stated), the IC50 [9] was > 50 µM (inactive).

With `COc1ccc(-c2cn3nc4c(nc3n2)CCCC4)cc1` the EC50 [10] was 0.46 µM (active) and the EC50 [11] was > 50 µM (not active).

With `CC(=O)NCC(=O)OCC(=O)Nc1ccc(C(C)=O)cc1` the IC50 [9] was > 50 µM (inactive).

For `O=C(CSc1nnc2c3c4c(sc3ncn12)CCCC4)NCc1ccco1`, the EC50 [12] was > 20 µM (not active) and the EC50 [13] was 14.5 µM (active).

For `O=C(COc1cc(Cl)c(Cl)cc1Cl)N1CCN(c2ccccn2)CC1`, the IC50 [7] was > 50 µM (not active).

In the case of `COc1ccc(NC(=O)CS(=O)(=O)c2ccccc2)cc1`, the IC50 [5] is reported as > 83.2 µM (inactive) and the IC50 [6] is reported as > 109 µM (inactive).

In the case of `CCn1cc(C(=O)N2CCc3ccccc32)c(=O)c2cc(S(=O)(=O)N3CCOCC3)ccc21`, the EC50 [12] is reported as > 20 µM (not active) and the EC50 [13] is reported as > 20 µM (not active).

With `COc1ccc(-n2c(Cc3cccs3)nnc2SCC(=O)Nc2ccc3c(c2)OCCO3)cc1` the IC50 [9] was > 50 µM (inactive).

In the case of `CCOC(=O)C(CC)(CCC(=O)OC)c1csc(Nc2ccccc2O)n1` (configuration not stated), the IC50 [7] is reported as > 50 µM (not active).
